Laboratory results: patent US10165778B2, “Method for controlling pests in soybean” (BASF SE, priority 2014, dated 2019)
Read-outs that look alike come from different tables or passages of the source.

Assays:
Format in all cases: in vivo
[1] = tested on: Green Soldier Stink Bug (Nezara viridula); assay: B.1 soybean pod spray test, 3rd instar nymphs; details: 120 h, read-out: mortality in comparison with untreated controls
Method: B.1 Green Soldier Stink Bug (Nezara viridula)
The active compound is dissolved at the desired concentration in a mixture of 1:1 (vol:vol) distilled water:acetone. Surfactant (Kinetic HV) is added at a rate of 0.01% (vol/vol). The test solution is prepared at the day of use.
Soybean pods were placed in microwavable plastic cups lined with moist filter paper and inoculated with ten 3rd instar N. viridula. Using a hand atomizer, approximately 2 ml solution is sprayed into each cup. Treated cups were kept at about 28-29° C. and relative humidity of about 50-60%. Percent mortality was recorded after 5 days.

[2] = tested on: Orchid Thrips (Dichromothrips corbetti); assay: B.2 floral-immersion test on orchid petals, adult thrips; details: 72 h, read-out: mortality in comparison with untreated controls
Method: B.2 Orchid Thrips (Dichromothrips corbetti)
Dichromothrips corbetti adults used for bioassay were obtained from a colony maintained continuously under laboratory conditions. For testing purposes, the test compound is diluted in a 1:1 mixture of acetone:water (vol:vol), plus Kinetic HV at a rate of 0.01% v/v.
Thrips potency of each compound was evaluated by using a floral-immersion technique. All petals of individual, intact orchid flowers were dipped into treatment solution and allowed to dry in Petri dishes. Treated petals were placed into individual re-sealable plastic along with about 20 adult thrips. All test arenas were held under continuous light and a temperature of about 28° C. for duration of the assay. After 3 days, the numbers of live thrips were counted on each petal. The percent mortality was recorded 72 hours after treatment.

[3] = tested on: Brown Stink Bug (Euschistus heros); assay: B.6 sprayed soybean seedlings (Intacta and BMX-Potencia), adults; details: for mortality at 10 ppm: Euschistus heros; for mortality at 10 ppm / mortality (%) 1 D.A.A / mortality (%) 2 DAA / mortality (%) 6 DAA / mortality (Abbott %) 1 D.A.A / mortality (Abbott %) 2 DAA / mortality (Abbott %) 6 DAA: Ginkgolide A 100 ppm a.i, Bilobalide 10 ppm a.i; for efficacy on soybean plants with Bacillus thuringiensis toxin trait (INTACTA) versus without (BMX-POTENCIA): comparison of INTACTA with BMX-POTENCIA
Method: B.6 Brown Stink Bug (Euschistus heros)
(§1) The active compound is dissolved at the desired concentration in a mixture of 1:1 (vol:vol) distilled water:acetone.
Soybean seedlings of Intacta and BMX-Potencia with one pair of true leaves were sprayed with 2 ml solution using an airbrush. After dry, the plants in small pots were placed inside a transparent plastic cage and infested with 10 adults adult stage individuals. Treated cups were kept at about 25° C. Percent mortality was recorded after 1, 2, and 6 days after application.
• Corrected mortality according to Abbott, W. S., A method of computing the effectiveness of an insecticide, J. Econ. Entomal., 18 (1925) 265-267.

[4] = tested on: Brown Stink Bug (Euschistus heros); assay: B.3 bean pod spray test, adults; details: 120 h, read-out: mortality in comparison with untreated controls
Method: B.3 Brown Stink Bug (Euschistus heros)
as §1
Fresh bean pods were placed in a transparent plastic cup and inoculated with ten adult stage individuals. Insects, food and inside of container are sprayed with 1 ml solution using an air brush. Treated cups were kept at about 25° C. Percent mortality was recorded after 5 days.

[5] = tested on: Forest Shield Bug (Eysarcoris aeneus); assay: B.4 peanut and soybean seed spray test, adults; details: 120 h, read-out: mortality in comparison with untreated controls
Method: B.4 Forest Shield Bug (Eysarcoris aeneus)
as §1
Row peanuts and soybean seeds were placed in a plastic cup and inoculated with ten adult stage individuals. Insects, food and inside of container are sprayed with 1 ml solution using an air brush. After drying, a water supply source will be placed in the cup and the cup closed with a screened lid. Treated cups were kept at about 20° C. Percent mortality was recorded after 5 days.

[6] = tested on: Green Soldier Stink Bug (Nezara viridula); assay: B.7 soil drench on lima bean plants, 2nd instar nymphs; details: read-out: mortality in comparison with untreated controls
Method: B.7 Green Soldier Stink Bug (Nezara viridula)
Lima Bean (Phaseolus lunatus, ‘Henderson Bush,’ Lot #—VR06650) plants were transplanted at the two true-leaf stage into 25.8 cm^2 pots filled with sifted (No. 10 sieve) North Carolina loamy sand soil. Pots were held in the greenhouse and watered daily until treatment. Three days after transplant, the compounds were dissolved in acetone and then diluted with water for a final concentration of 50% acetone. Treatments were applied as a drench in 1 ml solution per plant. Plants were held in an environmental chamber (25±2° C., 24 L) and watered as needed for the duration of the test.
Three days after treatment, plants were infested with five 2nd instar nymphs. Plants were covered with organza fabric bags to prevent escape. Four days after infestation, the number of live nymphs on each plant was recorded, and means were calculated for each treatment. The percent control was calculated as the percent mortality relative to the solvent blank.

[7] = tested on: Rice Leaf Bug (Trigonotylus caelestialium); assay: B.5 sprayed wheat seedling test, 2nd and 3rd stage nymphs; details: 120 h, read-out: mortality in comparison with untreated controls
Method: B.5 Rice Leaf Bug (Trigonotylus caelestialium)
as §1
Small wheat seedlings in glass tubes were sprayed with 200 microliter/tube by air brush. After drying, ten 2nd and 3rd nymph stage individuals were released in the tube and the tube closed with a screened lid. Treated cups were kept at about 20° C. Percent mortality was recorded after 5 days.

[8] = tested on: Green Soldier Stink Bug (Nezara viridula); assay: B.8 lima bean seed treatment, 2nd instar nymphs; details: 0.063 mg ai/seed, infested ten days after treatment, read four days after infestation
Method: B.8 Green Soldier Stink Bug (Nezara viridula)
Pots (25.8 cm^2) were filled with a 1:1 mixture of sifted (No. 10 sieve) North Carolina loamy sand soil and play sand. Technical material was dissolved in DMSO in a 20 ml scintillation vial. A total application volume of 25 μl of solution was added to a 20 ml vial, ten lima bean seeds (P. lunatus) were added, and the vial was vortexed for 1 minute. Seeds were allowed to dry and planted at a depth of 2 cm later the same day. One seed was planted per pot. Pots were held in the greenhouse and watered daily until infestation.
Ten days after treatment, plants were infested with five 2nd instar nymphs. Plants were covered with organza fabric bags to prevent escape. Plants were held in an environmental chamber (25±2° C., 24 L) and watered as needed.
Four days after infestation, the number of live nymphs on each plant was recorded, and means were calculated for each treatment. The percent control was calculated as the percent mortality relative to the solvent blank.

CC(C)(C)[C@]1(O)C[C@@H]2OC(=O)C[C@@]23C(=O)O[C@@H]2OC(=O)[C@H](O)[C@]213 [Bilobalide, (3aS,5aR,8aS,9R,10aR)-9-tert-butyl-8,9-dihydroxydihydro-9H-furo[2,3-b]furo[3′,2′;2,3]cyclopenta[1,2-c]furan-2,4,7(3H,8H)-trione]
mortality at 10 ppm [1]: ≥ 75% | mortality at 100 ppm [1]: ≥ 75% | mortality at 300 ppm [1]: ≥ 75% | mortality at 500 ppm [1]: ≥ 75% | mortality at 500 ppm [2]: ≥ 75% | mortality at 10 ppm ([3]; 24 h, read-out: mortality (%) 1 D.A.A, BMX - POTENCIA soybean, 1 day after application): 5% | mortality at 10 ppm ([3]; 24 h, read-out: mortality (%) 1 D.A.A, INTACTA soybean, 1 day after application): 7.5% | mortality at 10 ppm ([3]; 24 h, read-out: mortality (Abbott %) 1 D.A.A, BMX - POTENCIA soybean, corrected according to Abbott, 1 day after application): 2.6% | mortality at 10 ppm ([3]; 24 h, read-out: mortality (Abbott %) 1 D.A.A, INTACTA soybean, corrected according to Abbott, 1 day after application): 2.6% | mortality at 10 ppm ([3]; 48 h, read-out: mortality (%) 2 DAA, BMX - POTENCIA soybean, 2 days after application): 7.5% | mortality at 10 ppm ([3]; 48 h, read-out: mortality (%) 2 DAA, INTACTA soybean, 2 days after application): 20% | mortality at 10 ppm ([3]; 48 h, read-out: mortality (Abbott %) 2 DAA, BMX - POTENCIA soybean, corrected according to Abbott, 2 days after application): 2.6% | mortality at 10 ppm ([3]; 48 h, read-out: mortality (Abbott %) 2 DAA, INTACTA soybean, corrected according to Abbott, 2 days after application): 15.8% | mortality at 10 ppm ([3]; 144 h, read-out: mortality (%) 6 DAA, BMX - POTENCIA soybean, 6 days after application): 60% | mortality at 10 ppm ([3]; 144 h, read-out: mortality (%) 6 DAA, INTACTA soybean, 6 days after application): 72.5% | mortality at 10 ppm ([3]; 144 h, read-out: mortality (Abbott %) 6 DAA, BMX - POTENCIA soybean, corrected according to Abbott, 6 days after application): 50% | mortality at 10 ppm ([3]; 144 h, read-out: mortality (Abbott %) 6 DAA, INTACTA soybean, corrected according to Abbott, 6 days after application): 65.6% | efficacy on soybean plants with Bacillus thuringiensis toxin trait (INTACTA) versus without (BMX-POTENCIA) [3]: higher efficacy | mortality at 100 ppm [4]: ≥ 75% | mortality at 100 ppm [5]: ≥ 75% | mortality at 300 g/ha [6]: ≥ 75% | mortality at 100 ppm [7]: ≥ 75%

C[C@@H]1C(=O)O[C@H]2C[C@@]34[C@H]5C[C@@H](C(C)(C)C)[C@]36[C@@H](OC(=O)[C@@H]6O)O[C@@]4(C(=O)O5)[C@]21O [Ginkgolide A]
mortality in comparison with untreated controls [8]: at least 75% | mortality (%) 1 D.A.A ([3]; BMX - POTENCIA soybean, 1 day after application): 10.0% | mortality (%) 2 DAA ([3]; BMX - POTENCIA soybean, 2 days after application): 10.0% | mortality (%) 6 DAA ([3]; BMX - POTENCIA soybean, 6 days after application): 57.5% | mortality (Abbott %) 1 D.A.A ([3]; BMX - POTENCIA soybean, corrected according to Abbott, 1 day after application): 7.7% | mortality (Abbott %) 2 DAA ([3]; BMX - POTENCIA soybean, corrected according to Abbott, 2 days after application): 5.3% | mortality (Abbott %) 6 DAA ([3]; BMX - POTENCIA soybean, corrected according to Abbott, 6 days after application): 46.9% | mortality (%) 1 D.A.A ([3]; INTACTA soybean, 1 day after application): 12.5% | mortality (%) 2 DAA ([3]; INTACTA soybean, 2 days after application): 20.0% | mortality (%) 6 DAA ([3]; INTACTA soybean, 6 days after application): 62.5% | mortality (Abbott %) 1 D.A.A ([3]; INTACTA soybean, corrected according to Abbott, 1 day after application): 7.9% | mortality (Abbott %) 2 DAA ([3]; INTACTA soybean, corrected according to Abbott, 2 days after application): 15.8% | mortality (Abbott %) 6 DAA ([3]; INTACTA soybean, corrected according to Abbott, 6 days after application): 53.1% | efficacy on soybean plants with Bacillus thuringiensis toxin trait (INTACTA) versus without (BMX-POTENCIA) [3]: higher efficacy
